Structures can show the parent of a compound that is named as a salt. Where two headings read alike, the source gives them in different places. Positions of bridges follow the written chain, without caps; N, C: chain ends. Residues, ends and D or L forms follow the SMILES beside them. Chains are numbered I, II in the order given.
How the values were obtained:
CHO-K1 cells = experiment: In vitro cytotoxicity / viability assay (MTS) on CHO-K1 cells; format: cell-based, Chinese hamster; conditions: high concentration (tested at 1 and 10 mM), 24 h with dipeptide, samples adjusted to pH 7, vs control medium without (Lys-Cys)2
Method: (§1) • The assay was performed with human bone marrow stromal cells, mesenchymal stem cells (MSC) or Chinese hamster ovary cells (subclone K1), respectively. In a first step, the cells were seeded in a transparent 96-well cell culture plate and incubated for 24 h in a CO2-Incubator (37° C., 5% CO2, 95% humidity) at a cell density of 10.000 cells/well and in a final volume of 100 μl/well. After the resting time of 24 hours the supernatants were discarded, and prepared dipeptide test compounds were added to the cells in a final volume of 100 μl/well. The control was rested in medium without dipeptide.
(§2) All samples were dissolved directly in associated cell culture medium. pH values of the samples were adjusted to pH 7 in advance, to exclude an influence on the cell viability due to a potentially lower pH value.
(§3) Different salt forms of (Lys-Cys)2 were tested in two different concentrations and each sample was tested in triplicates. […]
(§4) As a result of the reduction of MTS into a formazan product by metabolically active cells, an absorbance signal of formazan could be measured at a wavelength of 490 nm in a multiplate reader. […]
(§5) CHO-K1 as well as MSC cells were cultured for 24 hours before the addition of different (Lys-Cys)2 salts. […] After 24-hour cultivation with the dipeptides, the cell viability was assessed using the CellTiter 96® AQueous Non-Radioactive Cell Proliferation Assay (MTS).

[1] = Storage stability test of salt forms (HPLC); format: physicochemical
Method: Storage stability tests at 25° C. and at 60° C. were conducted with the different salt forms of the (Lys-Cys) 2. Stability was measured with a HPLC method.

[2] = tested on: human bone marrow stromal cells, mesenchymal stem cells (MSC); experiment: In vitro cytotoxicity / viability assay (MTS) on mesenchymal stem cells; format: cell-based; conditions: high concentration (tested at 1 and 10 mM), 24 h with dipeptide, samples adjusted to pH 7, vs control medium without (Lys-Cys)2
Method: as §1, §2, §3, §4, §5

## Cl.Cl.Cl.Cl.NCCCC[C@H](N)C(=O)N[C@@H](CSSC[C@H](NC(=O)[C@@H](N)CCCCN)C(=O)O)C(=O)O [4 HCl form, N,N′-di-L-lysyl-L-cystine tetrahydrochloride] (I: H-Lys-Cys-OH / II: H-Lys-Cys-OH; disulfide I:2-II:2)
CHO-K1 cells
  cell viability: reduced cell viability
[1]
  storage stability: significantly more stable

## NCCCC[C@H](N)C(=O)N[C@@H](CSSC[C@H](NC(=O)[C@@H](N)CCCCN)C(=O)O)C(=O)O [2 HCl form, N,N′-di-L-lysyl-L-cystine dihydrochloride] (I: H-Lys-Cys-OH / II: H-Lys-Cys-OH; disulfide I:2-II:2)
CHO-K1 cells
  cell viability: improved cell viability
[2]
  cell viability: improved cell viability
[1]; storage at 25° C. and at 60° C., HPLC, compared with the chloride free, basic form
  storage stability: significantly more stable

Reference: patent publication US20240425814A1, “SALTS OF DIPEPTIDES AND THEIR USES IN CELL CULTURE” (Evonik Operations GmbH, priority 2021, published 2024)
